Assay results published in paper PMC11650360 (Archiv Der Pharmazie, 2024).
pKi: −log10 of the molar value.

Assays:
VchCAβ = VchCAβ (Vibrio cholerae, UniProt Q9KUD6); experiment: biochemical
VchCAα = VchCAα (Vibrio cholerae, UniProt Q9KMP6); experiment: stopped-flow CO2 hydrase assay; assay type: biochemical
Sequence of VchCAα (Q9KMP6 21-239): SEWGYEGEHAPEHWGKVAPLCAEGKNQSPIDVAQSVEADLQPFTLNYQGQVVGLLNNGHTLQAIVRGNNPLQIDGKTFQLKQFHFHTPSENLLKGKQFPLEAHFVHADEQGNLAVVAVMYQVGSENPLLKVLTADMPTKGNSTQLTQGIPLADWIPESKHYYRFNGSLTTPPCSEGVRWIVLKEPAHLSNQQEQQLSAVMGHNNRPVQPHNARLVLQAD

Sequence of VchCAβ (Q9KUD6 1-222): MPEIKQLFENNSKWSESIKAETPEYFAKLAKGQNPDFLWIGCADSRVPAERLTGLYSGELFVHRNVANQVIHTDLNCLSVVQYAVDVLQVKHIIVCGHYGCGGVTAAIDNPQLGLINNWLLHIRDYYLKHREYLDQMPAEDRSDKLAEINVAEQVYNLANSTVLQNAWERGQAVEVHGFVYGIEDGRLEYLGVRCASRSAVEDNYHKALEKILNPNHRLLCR

SMILES	pKi (VchCAβ)	pKi (VchCAα)
NS(=O)(=O)CCCn1cc(COc2ccccc2)nn1 [compound 1, 1]	5.38	4.54
COc1ccc(OCc2cn(CCCS(N)(=O)=O)nn2)cc1 [compound 3, 3]	5.53	4.78
NS(=O)(=O)CCCn1cc(CNC(=O)Nc2ccc(F)cc2)nn1 [compound 5, 5]	6.03	4.87
Cc1ccc(NC(=O)NCc2cn(CCCS(N)(=O)=O)nn2)cc1 [compound 6, 6]	6.09	–
NS(=O)(=O)CCCn1cc(CNC(=O)Nc2ccc(C(F)(F)F)cc2)nn1 [compound 7, 7]	6.17	4.95
COc1cccc(NC(=O)NCc2cn(CCCS(N)(=O)=O)nn2)c1 [compound 9, 9]	5.76	4.76
NS(=O)(=O)CCCCn1cc(COc2ccccc2)nn1 [compound 14, 14]	5.16	4.46
COc1ccc(OCc2cn(CCCCS(N)(=O)=O)nn2)cc1 [compound 16, 16]	5.21	4.54
NS(=O)(=O)CCCCn1cc(CNC(=O)Nc2ccc(F)cc2)nn1 [compound 18, 18]	5.47	4.77
Cc1ccc(NC(=O)NCc2cn(CCCCS(N)(=O)=O)nn2)cc1 [compound 19, 19]	5.54	4.74
NS(=O)(=O)CCCCn1cc(CNC(=O)Nc2ccc(C(F)(F)F)cc2)nn1 [compound 20, 20]	5.52	4.77
COc1cccc(NC(=O)NCc2cn(CCCCS(N)(=O)=O)nn2)c1 [compound 22, 22]	5.71	4.85
